In US7087248B2, “Pharmaceutical component based on human parathyroid hormone and a pharmaceutical composition for intranasal administration comprising the component” (Daiichi Asubio Pharma Co., Ltd., priority 2000, dated 2006) one finds Irritability data, which are given here for six molecules.

Molecules are shown by their SMILES.

One series has as its system nasal cavity. The experiment in a line: Sensory test (1): odor and irritation evoked by nasal spraying. As to conditions: 0.6 w/v % aqueous solution sprayed into the nasal cavity; four healthy normal adult males. Here is the method: As the control, physiological saline was used.
Then, aqueous solutions of various organic acids were prepared, in order to identify the factors responsible for the odor and irritation the preparation evokes when it is applied in the nasal cavity. The organic acid employed included acetic acid, citric acid and tartaric acid; oxalic acid; malic acid; phthalic acid; ascorbic acid; adipic acid; and glycolic acid.
Prepared were 0.1 v/v %, 0.2 v/v %, 0.3 v/v % and 0.6 v/v % aqueous solutions of acetic acid, and 0.6 w/v % aqueous solutions of citric acid, tartaric acid, oxalic acid, malic acid, phthalic acid, ascorbic acid, adipic acid, and glycolic acid. The solution was sprayed into the nasal cavity; and the odor and irritation were assessed in the same manner as above (testers consisting of four healthy normal adult males).
In the same manner as above, the test solution was applied in the nasal cavity, and the odor and irritation evoked thereby were assessed (testers consisting of 12 healthy normal adult males).
For `O=C1O[C@H]([C@@H](O)CO)C(O)=C1O` [Ascorbic acid], the Irritability entry was “the same with that from physiological saline and +”.
For the molecule `O=C(O)CO` [Glycolic acid], the Irritability result is “the same with that from physiological saline and +”.
Regarding `O=C(O)CC(O)C(=O)O` (stereo not drawn) [Malic acid], the Irritability result was “++++”.
On to `O=C(O)C(=O)O` [Oxalic acid], for which the Irritability result is “++++”.

Still in this series, the particulars now being: in vivo.
Turning to `O=C(O)c1ccccc1C(=O)O` [Phthalic acid], the Irritability result was “+++”.
Consider `O=C(O)C(O)C(O)C(=O)O` (stereo not drawn) [Tartaric acid], for which the Irritability entry is on record as “++++”.
